Laboratory results from patent publication US20100210539A1, “USE OF PEPTIDE LL-37 AS A THERAPEUTIC AGENT” (priority 2007, published 2010).

System: drug-resistant Mycobacterium tuberculosis
Settings: peptide 10 micrograms per ml, seven days

CC[C@H](C)[C@H](NC(=O)[C@H](CCCCN)NC(=O)[C@H](CCC(=O)O)NC(=O)[C@H](CCCCN)NC(=O)[C@H](CO)NC(=O)[C@H](CCCCN)NC(=O)[C@H](CCCNC(=N)N)NC(=O)[C@H](Cc1ccccc1)NC(=O)[C@H](Cc1ccccc1)NC(=O)[C@H](CC(=O)O)NC(=O)CNC(=O)[C@H](CC(C)C)NC(=O)[C@@H](N)CC(C)C)C(=O)NCC(=O)N[C@@H](CCCCN)C(=O)N[C@@H](CCC(=O)O)C(=O)N[C@@H](Cc1ccccc1)C(=O)N[C@@H](CCCCN)C(=O)N[C@@H](CCCNC(=N)N)C(=O)N[C@H](C(=O)N[C@H](C(=O)N[C@@H](CCC(N)=O)C(=O)N[C@@H](CCCNC(=N)N)C(=O)N[C@H](C(=O)N[C@@H](CCCCN)C(=O)N[C@@H](CC(=O)O)C(=O)N[C@@H](Cc1ccccc1)C(=O)N[C@@H](CC(C)C)C(=O)N[C@@H](CCCNC(=N)N)C(=O)N[C@@H](CC(N)=O)C(=O)N[C@@H](CC(C)C)C(=O)N[C@H](C(=O)N1CCC[C@H]1C(=O)N[C@@H](CCCNC(=N)N)C(=O)N[C@H](C(=O)N[C@@H](CCC(=O)O)C(=O)N[C@@H](CO)C(N)=O)[C@@H](C)O)C(C)C)[C@@H](C)CC)C(C)C)[C@@H](C)CC [LL-37]
% inhibition: 0.0%
